Reference: patent publication US6380254B2, “Method and composition for treating and preventing pathogenic effects caused by intracellular calcium overload” (Leigh Biotechnology, Inc., priority 1994, dated 2002)
Where two headings read alike, the source gives them in different places.

Assays:
Format in all cases: cell-based, rat
[1] = tested on: Hepatocytes; experiment: Viability of post-anaerobic hepatocytes (fraction of cytosolic lactate dehydrogenase retained intracellularly); settings: for viability at 5000 µM: Rattus norvegicus, Hepatocyte, 1.5 h, read-out: SURVIVING FRACTION; for MEAN SURVIVING FRACTION: glycine 20 mM, mixture less than 5 mM total, 90 min anaerobic then 90 minute aerobic incubation, untreated .384
Protocol: Both perfusates were introduced in situ at a rate of 20 ml/minute. The liver was dispersed by several passages through a glass pipette tip (4 mm aperture), subsequently filtered through two layers of a 250 micron Nylon mesh, and diluted in 50 ml of a chilled suspension medium of the BSS containing 1.3 mM CaCl2, 1.3 mM MgCl2, 20 mM glucose, and 5 mM pyruvate. The crude suspension was purified by differential centrifugation (100 g per 2 minutes).
The purified cell suspension, consisting primarily of liver parenchymal cells, was washed three times with the cold suspension medium. The final pellet was resuspended at a concentration of 20 mg cell protein (Biuret assay) per milliliter of suspension medium and incubated aerobically for one hour at 24° C. in a 50 ml polypropylene centrifuge tube mounted horizontally on the rocker tray of a shaking water bath (30 strokes per minute). At the end of this incubation period, hepatocyte viability was assessed by trypan blue exclusion.
Samples of the purified cell suspension were then transferred to two 50 ml polypropylene test tubes. One of these tubes was purged of oxygen by flushing the gas phase with argon and then permitting the cells to consume the residual oxygen in the medium. […] This anaerobic suspension was maintained in a 37° C.. water bath without agitation.
The other test tube was supplemented with oxygen by flushing the gas phase with pure oxygen. Diffusion of oxygen from the gas phase to this aerobic reference cell suspension was encouraged by orienting the tube in such a fashion as to maximize surface area and by gently agitating the suspension in the 37° C.. water bath. After 90 minutes, both suspension were removed from the water bath and the cells were washed two times with an ice cold suspension buffer and then resuspended in a warm, aerated suspension medium to a concentration of 10 mg cell protein.
A one milliliter sample of the anaerobic suspension was added to 4 ml of warm, aerated suspension medium containing either no additives (for the untreated cells), or a single amino carboxylic acid at a concentration of 5 mM. Cell viability was assessed in each test population at the end of a subsequent 90 minute aerobic incubation at 37° C. by measuring the fraction of cytosolic lactate dehydrogenase activity retained intracellularly.
Cell viability was assessed as the fraction of the cytosolic enzyme, lactate dehydrogenase, retained intracellularly following a 90 minute aerobic incubation. A minimum of four observations were made and recorded.
(§1) Hepatocytes were incubated anaerobically for 90 minutes, then washed and resuspended in fresh medium containing either no additives (untreated cells), trifluoperazine (25 μM), glycine (20 mM or 150 mg per 100 ml), or a mixture of amino carboxylic acids (total amino carboxylic acid concentration was less than 5 mM or 65 mg per 100 ml). Cell viability was assessed as the fraction of lactate dehydrogenase retained intracellularly following a 90 minute aerobic incubation. A minimum of four observations were made and recorded.
as §1, with “additives (for the untreated” for “additives (untreated”, “cells), neomycin sulfate (10 mM),” for “cells), trifluoperazine (25 μM),”, “or the” for “or a”

[2] = tested on: Hepatocytes; experiment: as above; settings: glycine 20 mM, mixture less than 5 mM total, 90 min anaerobic then 90 minute aerobic incubation
[3] = tested on: glycogen phosphorylase a; experiment: Intracellular calcium activity in post-anaerobic hepatocytes, expressed as glycogen phosphorylase a activity; settings: mmols of PO^−3 liberated from glucose-1-phosphate per 1 million viable post-anaerobic cells; chlorpromazine 25 μM, glycine 20 mM, mixture less than 5 mM total; untreated 165.5
Protocol: Kinase is stimulated by increased intracellular calcium concentration via calmodulin. […] Thera., Vol. 238, pp. 186-191, 1986. […] Cell viability was assessed as the fraction of lactate dehydrogenase retained intracellularly following a 90 minute aerobic incubation. Intracellular calcium activity was assessed in these post-anaerobic cells by the method described in Long and Moore, supra, and expressed in terms of glycogen phosphorylase a activity. […] A minimum of four observations were made and recorded.

[4] = single amino carboxylic acid at 5 mM, 90 min anaerobic, then 90 minute aerobic incubation at 37° C., untreated 0.25
[5] = Table 2, chlorpromazine 25 μM, mean with standard deviation, untreated .342
[6] = Table 6, desferrioxamine 25 μM, untreated .363
[7] = Table 4, neomycin sulfate 10 mM
[8] = Table 5, alpha tocopherol succinate 100 mg per 100 ml, untreated .352

C[C@H](N)C(=O)O [Alanine, alanine]
viability at 5000 µM [1, 4]: 51%

N=C(N)NCCC[C@H](N)C(=O)O [Arginine, arginine]
viability at 5000 µM [1]: 51%

NC(=O)C[C@H](N)C(=O)O [Asparagine, asparagine]
viability at 5000 µM [1, 4]: 54%

CN(C)CCCN1c2ccccc2Sc2ccc(Cl)cc21 [Chlorpromazine, chlorpromazine, reference compound]
MEAN SURVIVING FRACTION [2, 5]: .567 ± .055

CC(=O)N(O)CCCCCNC(=O)CCC(=O)N(O)CCCCCNC(=O)CCC(=O)N(O)CCCCCN [Desferrioxamine, desferrioxamine, reference compound]
MEAN SURVIVING FRACTION [2, 6]: .393 ± .029

N[C@@H](CCC(=O)O)C(=O)O [Glutamic acid, glutamic acid]
viability at 5000 µM [1]: 52%

NC(=O)CC[C@H](N)C(=O)O [Glutamine, glutamine]
viability at 5000 µM [1, 4]: 52%

NCC(=O)O [Glycine, glycine]
viability at 5000 µM [1, 4]: 53%
MEAN SURVIVING FRACTION ([1]; Table 3, trifluoperazine 25 μM): .739 ± .014
MEAN SURVIVING FRACTION [1, 7]: .694 ± .033
MEAN SURVIVING FRACTION [2, 5]: .698 ± .065
MEAN SURVIVING FRACTION [2, 8]: .749 ± .020
MEAN SURVIVING FRACTION [2, 6]: .696 ± .038
GLYCOGEN PHOSPHORYLASE A ACTIVITY [3]: 124.8 ± 22.9 mmols

N[C@@H](Cc1c[nH]cn1)C(=O)O [Histidine, histidine]
viability at 5000 µM [1, 4]: 50%

CC[C@H](C)[C@H](N)C(=O)O [Isoleucine, isoleucine, reference compound]
viability at 5000 µM [1, 4]: 29%

CC(C)C[C@H](N)C(=O)O [Leucine, leucine, reference compound]
viability at 5000 µM [1, 4]: 32%

O=C(O)[C@@H]1CCCN1 [Proline, proline]
viability at 5000 µM [1, 4]: 49%

N[C@@H](CO)C(=O)O [Serine, serine]
viability at 5000 µM [1, 4]: 40%

CN1CCN(CCCN2c3ccccc3Sc3ccc(C(F)(F)F)cc32)CC1 [Trifluoperazine, trifluoperazine, reference compound]
MEAN SURVIVING FRACTION ([1]; Table 3, trifluoperazine 25 μM): .550 ± .061

N[C@@H](Cc1ccc(O)cc1)C(=O)O [Tyrosine, tyrosine, reference compound]
viability at 5000 µM [1, 4]: 31%

CC(C)[C@H](N)C(=O)O [Valine, valine, reference compound]
viability at 5000 µM [1, 4]: 28%

Cc1c(C)c2c(c(C)c1O)CC[C@@](C)(CCC[C@H](C)CCC[C@H](C)CCCC(C)C)O2 [alpha-tocopherol, reference compound]
MEAN SURVIVING FRACTION [2, 8]: .421 ± .087

neomycin sulfate [reference compound]
MEAN SURVIVING FRACTION [1, 7]: .566 ± .043
